Experimental data published in ChEMBL document CHEMBL1201862, “PubChem BioAssay data set” (2004).
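Values below derive from 48-hour exposures of cells grown in 96-well plates, with endpoints linearly interpolated between the two concentrations bracketing the appropriate inhibition level. At the GI50, growth is halved.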 Activity calls are given as the source filed them. Rule as the data show it: active = GI50 up to about 1.1 µM and inactive = higher.

Key:
Experiment in all cases: inhibition of tumour cell growth, NCI panel, 48 h
[1] = test system: A498
[2] = test system: ACHN
[3] = test system: CAKI-1
[4] = test system: EKVX
[5] = test system: IGROV-1
[6] = test system: K562
[7] = test system: MCF7
[8] = test system: MDA-MB-435
[9] = test system: MDA-N
[10] = test system: NCI-H226
[11] = test system: NCI-H23
[12] = test system: NCI/ADR-RES
[13] = test system: PC-3
[14] = test system: RPMI-8226
[15] = test system: SK-MEL-2
[16] = test system: SK-MEL-5
[17] = test system: SK-OV-3
[18] = test system: T47D
[19] = test system: UACC-257
[20] = test system: SR

Measured: GI50

O=c1[nH]c(=O)n(C2OC(CO)C(O)C2O)c2nc(-c3ccc(-c4ccccc4)cc3)cnc12 (stereo not given)
inactive: [1] > 100 µM | [2] > 100 µM | [3] > 100 µM | [4] > 100 µM | [5] > 100 µM | [6] > 100 µM | [7] > 100 µM | [8] > 100 µM | [9] > 100 µM | [10] > 100 µM | [11] > 100 µM | [12] > 100 µM | [13] > 100 µM | [14] > 100 µM | [15] > 100 µM | [16] 40.6 µM | [17] > 100 µM | [18] > 100 µM | [19] > 100 µM

Cc1c2c(n(CCc3ccccc3)c1C)NN=C(C#N)S2(=O)=O
inactive: [2] > 100 µM | [4] > 100 µM | [5] > 100 µM | [6] > 100 µM | [7] > 100 µM | [8] > 100 µM | [9] > 100 µM | [11] > 100 µM | [12] > 100 µM | [13] > 100 µM | [14] > 100 µM | [15] > 100 µM | [16] > 100 µM | [17] > 100 µM | [20] 6.53 µM | [18] > 100 µM | [19] > 100 µM

CCCCc1ccc(Nc2nc(OC)c3ncn(C4CC(O)C(CO)O4)c3n2)cc1 (stereo not given)
inactive: [1] 19.7 µM | [2] 16.4 µM | [3] 1.85 µM | [4] 1.58 µM | [5] 12.5 µM | [6] 6.15 µM | [7] 14.2 µM | [8] 17.7 µM | [9] 15.5 µM | [10] 19.4 µM | [11] 18 µM | [12] 27 µM | [13] 18.1 µM | [14] 27.2 µM | [15] 20.2 µM | [16] 18.7 µM | [17] 13.2 µM | [18] 18.9 µM | [19] 17.7 µM

COC(CNC(=O)C(C)NC(=O)CCc1ccccc1)OC (stereo not given)
inactive: [2] > 100 µM | [3] > 100 µM | [4] > 100 µM | [5] > 100 µM | [6] > 100 µM | [7] > 100 µM | [8] > 100 µM | [9] > 100 µM | [10] > 100 µM | [11] > 100 µM | [12] > 100 µM | [13] > 100 µM | [14] > 100 µM | [15] > 100 µM | [16] > 100 µM | [17] > 100 µM | [20] > 100 µM | [18] > 100 µM | [19] > 100 µM

CC(C)C1C(=O)N2CCCC2C2(O)OC(NC(=O)C3C=C4c5cccc6[nH]cc(c56)CC4N(C)C3)(C(C)C)C(=O)N12 (stereo not given)
inactive: [2] 18.9 µM | [3] 16.7 µM | [4] 19.5 µM | [5] 14.9 µM | [7] 35.8 µM | [8] 29.2 µM | [9] 25 µM | [11] 26.9 µM | [12] 21.1 µM | [13] 21.1 µM | [14] 16.2 µM | [15] 17.7 µM | [16] 20.6 µM | [20] 32.4 µM | [18] 47.6 µM | [19] 28.7 µM

CC(=O)c1nc(C#N)c(N)o1
inactive: [1] > 100 µM | [2] > 100 µM | [3] > 100 µM | [4] > 100 µM | [5] > 100 µM | [6] > 100 µM | [7] > 100 µM | [8] > 100 µM | [9] > 100 µM | [10] > 100 µM | [11] > 100 µM | [12] > 100 µM | [13] > 100 µM | [14] > 100 µM | [15] > 100 µM | [17] > 100 µM | [18] > 100 µM | [19] > 100 µM

N=C(N)NS(=O)(=O)c1ccc(NC(=O)c2ccc3nc4ccccc4c(O)c3c2)cc1
inactive: [2] > 100 µM | [3] > 100 µM | [4] > 100 µM | [5] > 100 µM | [6] > 100 µM | [7] > 100 µM | [8] > 100 µM | [9] > 100 µM | [10] > 100 µM | [11] > 100 µM | [12] > 100 µM | [13] > 100 µM | [14] > 100 µM | [15] > 100 µM | [16] > 100 µM | [17] > 100 µM | [20] > 100 µM | [18] > 100 µM | [19] > 100 µM

CC(=O)OCC1OC(n2cnc(C(N)=S)c2N)C(OC(C)=O)C1OC(C)=O (stereo not given)
inactive: [2] > 100 µM | [3] > 100 µM | [5] > 100 µM | [7] > 100 µM | [8] > 100 µM | [9] > 100 µM | [10] > 100 µM | [11] > 100 µM | [12] > 100 µM | [13] > 100 µM | [14] > 100 µM | [15] > 100 µM | [16] > 100 µM | [17] > 100 µM | [20] > 100 µM | [18] > 100 µM | [19] > 100 µM

O=C(c1ccccc1Cl)n1oc2ccccc2c1=O
inactive: [1] > 100 µM | [2] > 100 µM | [3] 29.7 µM | [4] > 100 µM | [5] 69.2 µM | [6] 7.62 µM | [7] 51.1 µM | [8] > 100 µM | [9] > 100 µM | [10] 67 µM | [12] > 100 µM | [13] > 100 µM | [14] 28.1 µM | [15] > 100 µM | [16] 82.4 µM | [17] > 100 µM | [18] > 100 µM | [19] 86.7 µM

N#CCCC1(CCC#N)CCc2ccccc2C1=O
inactive: [2] > 100 µM | [3] > 100 µM | [4] > 100 µM | [5] > 100 µM | [6] > 100 µM | [7] > 100 µM | [8] > 100 µM | [9] > 100 µM | [10] > 100 µM | [11] > 100 µM | [12] > 100 µM | [13] > 100 µM | [14] > 100 µM | [15] > 100 µM | [16] > 100 µM | [17] > 100 µM | [20] > 100 µM | [18] > 100 µM | [19] > 100 µM

O=C(O)COc1cc(-c2ccccc2F)nc2cc3c(cc12)OCO3
inactive: [2] > 100 µM | [3] > 100 µM | [4] > 100 µM | [5] > 100 µM | [6] > 100 µM | [7] > 100 µM | [8] > 100 µM | [9] > 100 µM | [10] > 100 µM | [11] > 100 µM | [12] > 100 µM | [13] > 100 µM | [14] > 100 µM | [15] > 100 µM | [16] > 100 µM | [17] > 100 µM | [20] > 100 µM | [18] > 100 µM | [19] > 100 µM
